Results reported in patent US9371265B2, “Compositions and methods related to inhibitors of JAK kinase” (EP PHARMA, INC., priority 2012, dated 2016).

What was measured:
[1] = molecular target: IKK-beta (Homo sapiens, UniProt O14920); experiment: Kinase panel: IKK-beta; assay type: biochemical; conditions: 10 μM EP009
Method: (§1) Achieving JAK3 selectivity remains a significant challenge in the development of new small molecules for the treatment of cancer and immune-derived diseases. As such, the inventors employed cell-based screening assays of small-molecule libraries based upon the chemical scaffold of the established JAK3 inhibitor NC1153 (Stepkowski et al., J Immunol. (2005), 175(7):4236-4246) EP009 (FIG. 2A) was selected as a lead compound due to improved intrinsic stability (>95% purity in various solvents at 37° C. for 24 hours; FIG. 3) and high-degree of JAK3 selectivity. To test JAK3 versus JAK2 specificity of EP009, the IL-2/JAK3-dependent Kit225, and IL-3/JAK2-dependent BaF/3 cell lines were used. Kit225 and BaF/3 cells growing in the presence of IL-2 or IL-3, respectively, were treated with ascending concentrations of EP009 for 12 hours and cellular JAK3 and JAK2 tyrosine phosphorylation levels detected by Western blot analysis (FIGS. 2B and 2C). Following densitometric analysis, EP009 was determined to dose-dependently reduce IL-2-mediated JAK3 tyrosine phosphorylation with a cellular 50% inhibitory concentration (IC50) between 10 and 20 μM (FIG. 2B). […] To globally evaluate specificity, the inhibitory activity of EP009 was measured against a panel of protein kinases distributed throughout the kinome using the scanEDGE profiling service (KINOMEscan). […]

[2] = molecular target: p38-beta (Homo sapiens, UniProt Q15759); experiment: Kinase panel: p38-beta; assay type: biochemical; conditions: 10 μM EP009
Method: as §1

[3] = molecular target: MEK1 (Homo sapiens, UniProt Q02750); experiment: Kinase panel: MEK1; assay type: biochemical; conditions: 10 μM EP009
Method: as §1

[4] = system: normal human naïve PBMCs; experiment: Naive PBMC viability (MTS); assay type: cell-based; conditions: 72 hours, concentrations giving complete loss of JAK3-dependent cell viability (0-10 μM)
Method: FIGS. 2A-2F. Selective inhibition of JAK3 by EP009 results in loss of JAK3-dependent tumor cell line viability with no detectable off-target effects in key cell types. (A) Chemical structure of EP009 (M.W. 224.34). (B) Kit225 or (C) BaF/3 cells cultured in the presence of IL-2 or IL-3, respectively, were treated with vehicle (PBS; lane a) or increasing amounts of EP009 (0-50 μM; lanes b-h) for 12 hours. Cells were then lysed, clarified, and immunoprecipitated (IP) with anti-JAK3 (α-JAK3) or anti-JAK2 (α-JAK2), and subjected to Western blot (WB) analysis with anti-phosphotyrosine (α-pY). Blots were stripped and reprobed with corresponding antibody to verify equivalent protein loading. […] (E) Kit225 or BaF/3 cells were cultured with increasing amounts of EP009 (0-10 μM) for 72 hours and cell viability measured with the MTS tetrazolium salt assay. Values represent mean absorbance (OD490-OD650 nm) normalized to vehicle (PBS) treated control cells, while error bars represent the standard deviation (n=3). (F) HEK293, HEPG2, or naïve primary human PBMCs were cultured with increasing amounts of EP009 (0-10 μM) for 72 hours and cell viability measured with the MTS tetrazolium salt assay. Values represent mean absorbance (OD490-OD650 nm) normalized to vehicle (PBS) treated control cells, while error bars represent the standard deviation (n=3). […]

[5] = Stability analysis in solvents using NMR and HPLC; assay type: physicochemical
Method: FIG. 3. EP009 is structurally stable under varying solvent and temperature conditions. EP009 was dissolved in DMSO, DMSO:H20 (3:2 ratio), or methanol, and incubated at 25° C. or 37° C. for 24 hours.
FIG. 11 illustrates the dose-dependent effect of (FIG. 11A) freshly prepared EP-009(P) and (FIG. 11B) EP-009(P) stored in aqueous conditions for 48 hr at room temperature on IL-2/JAK3-dependent Kit225 cell viability. FIG. 12 illustrates LC-MS/MS detection of EP-009 (5 ng/ml) in mouse plasma at a retention time of 1.91 min.

Chain of IKK-beta (O14920 whole entry): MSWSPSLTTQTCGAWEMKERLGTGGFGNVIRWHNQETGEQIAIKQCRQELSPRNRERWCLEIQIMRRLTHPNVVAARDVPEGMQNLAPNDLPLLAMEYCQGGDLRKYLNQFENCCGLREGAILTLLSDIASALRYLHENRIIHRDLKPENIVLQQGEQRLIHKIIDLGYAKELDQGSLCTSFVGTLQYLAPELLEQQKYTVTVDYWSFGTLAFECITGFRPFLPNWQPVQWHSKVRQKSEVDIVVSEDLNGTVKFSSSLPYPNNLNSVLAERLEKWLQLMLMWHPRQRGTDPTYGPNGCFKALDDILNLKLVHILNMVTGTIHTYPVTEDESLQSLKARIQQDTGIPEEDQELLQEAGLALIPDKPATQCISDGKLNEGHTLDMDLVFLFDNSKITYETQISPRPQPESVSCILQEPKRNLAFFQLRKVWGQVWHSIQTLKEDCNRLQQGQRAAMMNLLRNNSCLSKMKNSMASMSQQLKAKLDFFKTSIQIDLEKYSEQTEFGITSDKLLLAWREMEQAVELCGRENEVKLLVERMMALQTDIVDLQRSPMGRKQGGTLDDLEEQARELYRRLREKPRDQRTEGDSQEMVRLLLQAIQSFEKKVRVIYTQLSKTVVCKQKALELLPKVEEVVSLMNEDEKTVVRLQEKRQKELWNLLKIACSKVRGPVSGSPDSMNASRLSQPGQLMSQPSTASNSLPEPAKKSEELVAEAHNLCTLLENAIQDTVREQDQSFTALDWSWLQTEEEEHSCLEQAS
Chain of MEK1 (Q02750 whole entry): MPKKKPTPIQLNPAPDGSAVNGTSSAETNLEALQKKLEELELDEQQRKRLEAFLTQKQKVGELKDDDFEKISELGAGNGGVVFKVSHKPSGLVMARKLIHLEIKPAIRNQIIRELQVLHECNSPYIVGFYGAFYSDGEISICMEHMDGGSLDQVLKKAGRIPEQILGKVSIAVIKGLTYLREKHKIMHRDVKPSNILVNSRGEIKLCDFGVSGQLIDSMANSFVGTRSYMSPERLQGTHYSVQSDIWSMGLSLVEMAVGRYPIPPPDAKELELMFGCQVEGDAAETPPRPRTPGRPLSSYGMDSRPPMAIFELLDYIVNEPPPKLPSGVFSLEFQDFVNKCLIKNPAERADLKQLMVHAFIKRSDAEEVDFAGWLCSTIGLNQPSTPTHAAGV
Chain of p38-beta (Q15759 whole entry): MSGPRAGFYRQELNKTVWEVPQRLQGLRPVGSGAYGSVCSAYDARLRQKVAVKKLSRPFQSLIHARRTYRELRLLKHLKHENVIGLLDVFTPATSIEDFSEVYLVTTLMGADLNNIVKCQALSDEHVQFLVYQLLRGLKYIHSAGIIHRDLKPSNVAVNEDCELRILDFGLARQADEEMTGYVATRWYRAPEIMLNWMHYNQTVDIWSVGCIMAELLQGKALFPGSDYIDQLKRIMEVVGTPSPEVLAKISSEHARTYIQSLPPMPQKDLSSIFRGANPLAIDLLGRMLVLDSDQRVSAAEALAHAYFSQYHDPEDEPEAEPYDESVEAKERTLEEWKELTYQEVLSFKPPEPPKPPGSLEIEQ

C=C1CCCCCCCCCC(CO)C1=O (stereo not drawn) [EP009, 2-(Hydroxymethyl)-12-methylenecyclododecanone]
Kinase Activity (% of Control) [1]: 73 % of Control | Kinase Activity (% of Control) [2]: 96 % of Control | Kinase Activity (% of Control) [3]: 71 % of Control | effect on normal human naïve PBMC viability [4]: no detectable loss of cell viability | stability under various solubility conditions ([5]; 24 hr at 25° C. and 37° C.): stabile | intrinsic stability (purity) ([5]; various solvents at 37° C. for 24 hours): > 95%
